Data taken from US6060516A, “N^1 -propargylhydrazines, N^2 -propargylhydrazines and their analogs for the treatment of depression, anxiety and neurodegeneration” (CV Technologies, Inc., priority 1998, dated 2000).

What was measured:
MAO-A = MAO-A inhibition ex vivo in DSP-4 treated mice (brain); design: species or system mouse
Experimental: The compounds were evaluated for ex vivo monoamine oxidase-A inhibiting activity using the radiochemical procedure of Lyles, G. A. and Callingham, B. A. (1982). […] Biochem. Pharmacol. 31: 1417-1424. Radiolabelled 5-hydroxytryptamine was used as a substrate for monoamine oxidase-A. The compounds of interest were either injected intraperitonealy in DMSO or administered by gavage in water for various periods. The animals were killed by decapitation and the brains and livers immediately removed and frozen until assayed for monoamine oxidase-A activity. Tissues were homogenized and appropriately diluted in buffer prior to incubation. Incubations proceeded at 37° C. for 10 minutes. Incubation was terminated by the addition of acid and the radiolabelled product (5-hydroxyindoleacetaldehyde and 5-hydroxyindoleacetic acid) was extracted and quantified by liquid scintillation counting procedures. Incubations were done in triplicate and incubations containing phenelzine were included for comparison. The percent inhibition of monoamine oxidase-A activity compared to controls containing no drug was calculated.
Neuroprotectant activity was evaluated by examining the prevention of DSP-4 induced noradrenaline depletion in mouse hippocampus as described in Yu, P. H., Davis, B. A., Fang, J. and Boulton, A. A. (1994), Neuroprotective effect of some monoamine oxidase-B inhibitors against DSP-4 induced noradrenaline depletion in the mouse hippocampus, J. Neurochem. 63: 1820-1828. Briefly, mice were injected (i.p.) with either 20% DMSO or potential neuroprotectants (10 mg/kg in 20% DMSO). One hour later they were injected with either water or DSP-4 (50 mg/kg in water). One week later the mice were killed and the brains removed and the hippocampus dissected out. The hippocampus was frozen and saved for estimation of noradrenaline and other aminergic neurotransmitters and their metabolites as in Sloley, B. D. and Goldberg J. I. (1991), Determination of γ-glutamyl conjugates of monoamines by means of high-performance liquid chromatography with electrochemical detection and application to gastropod tissues, J. Chromatog. 567: 49-56. The rest of the brain was frozen and retained for estimation of monoamine oxidase activities ex vivo as described earlier.

[1] = tested on: DSP-4 induced noradrenaline depletion in mouse hippocampus; assay: Prevention of DSP-4 induced noradrenaline depletion in mouse hippocampus; type: in vivo; conditions: 10 mg/kg then DSP-4 50 mg/kg; saline control experiment
PC12 cells = assay: PC12 neurite outgrowth (neurotrophic effect); type: cell-based; conditions: for Index of Neurite Outgrowth: seven days
Experimental: The effects of CVT-P040 on neurite outgrowth in cell culture were investigated using an established PC 12 pheochromocytoma cell culture. The effects of CVT-P040 and nerve growth factor on neurite outgrowth were estimated using the method described by Rydel, R. E and Greene, L. A.(1987), Acidic and basic fibroblast growth factors promote stable neurite outgrowth and basic neuronal differentiation in cultures of PC12 cells, J. Neuroscience 7: 3639-3653. Briefly, PC12 cells were seeded and maintained in 100 cm^2 tissue culture dishes at 37° C. in RPMI1640 media containing 1% antibiotics, 10% heat inactivated horse serum and 5% fetal bovine serum in a water saturated atmosphere of 95% air and 5% CO2. The cells were mechanically dislodged and plated into 35 mm collagen-coated tissue culture dishes containing a total of 2.0 ml complete medium at a density of […]. The medium was changed 3 times/week. Cellular responses to CVT-P040 and nerve growth factor (NGF) were determined by counting the number of PC12 cells containing processes. Photographs of the cells were taken after seven days treatment. Two cell fields were chosen in each dish and the photographs developed and printed. […] The neurite index was calculated using the following formula; Neurite Index=total neurite score (ΣS)/ total cell number (ΣN); ΣS=S1×N+S2×N +S3×N+S4×N, where N is the number of cells in each cell field.

Row | Compound | MAO-A % Inhibition (MAO-A; 10 mg/kg then DSP-4 50 mg/kg, saline control experiment) [%] | % NA Restoration [1] [%] | NA [1] [ng/g] | neurite index on coadministration with NGF (PC12 cells; CVT-P040 100 μM with 0.3 or 1.0 ng/ml NGF, against NGF alone, in words) | Index of Neurite Outgrowth (PC12 cells; CVT-P040 100 μM with NGF 0.1 ng/ml) | Index of Neurite Outgrowth (PC12 cells; CVT-P040 100 μM with NGF 0.3 ng/ml) | Index of Neurite Outgrowth (PC12 cells; CVT-P040 100 μM with NGF 1.0 ng/ml) | neurite outgrowth in PC12 cells (PC12 cells; CVT-P040 100 μM, in words) | Index of Neurite Outgrowth (PC12 cells; CVT-P040 100 μM) | MAO-A % Inhibition (MAO-A; 10 mg/kg i.p. then DSP-4 50 mg/kg, 20% DMSO control experiment) [%] | preference for MAO-A inhibition (MAO-A; DSP-4 experiment, 10 mg/kg, in words)
1 | C#CCN(CCc1ccccc1)NC(C)=O [CVT-P041, N^1 -propargyl-N^2 -acetylphenelzine] | 4.3 ± 6.2 | -43.2 | 168 ± 31 |  |  |  |  |  |  |  | 
2 | C#CCN(N)CCc1ccccc1 [CVT-P040, N^1 -propargylphenelzine] |  |  |  | increased the neurite index above those cultures receiving 0.3 or 1.0 ng/ml NGF alone | 0.55 ± 0.03 | 0.97 ± 0.06 | 1.53 ± 0.07 | increased neurite outgrowth in PC12 cells | 0.35 ± 0.03 | 57.9 ± 2.9 | strong preference for MAO-A inhibition
